In article PMC4872784 (Oncotarget, 2016):
Where “and” joins values, the source holds several entries; their conditions need not be identical. Identical values can stand only once. Counter-ions that a name gives are not always drawn.

Key:
KOPN8 cells = assay: alamarBlue cytotoxicity assay, 48h; type: cell-based, human; details: RPMI + 10% FBS
Method: (§1) Following subtraction of background fluorescence from all wells, fluorescence of drug-treated cells was normalized to that of vehicle (<0.5% DMSO)-treated cells to determine the effect of each drug concentration on viability. Each cell line was tested in triplicate and in at least three independent experiments. IC50 (concentration that inhibits cell growth by 50%) values were calculated using CompuSyn software (ComboSyn, Paramus, NJ). […] In addition several cell lines were initially cultured and tested in alternative media (Supplementary Table S2). […] Colony counts were normalized to vehicle-treated controls (100%). Three independent experiments were performed.
(§2) In most experiments, cytotoxicity was assessed using alamarBlue assays (Life Technologies, Grand Island, NY). In experiments using NAC and DFO, which can interfere with alamarBlue assay performance, Trypan Blue dye exclusion was used instead. […]
(§3) experiments performed in triplicate. […] Age refers to age […]
(§4) at the time of leukemia diagnosis of the patient from whom the cell line was derived. (–) Indicates information unavailable.
(§5) *Cell lines with FLT3/ITD mutations.
(§6) *The MV-4–11 cell line was derived from a patient with a biphenotypic B-myelomonocytic leukemia; K562 was derived […]
(§7) 1A. p53 status was obtained from http://cancer.sanger.ac.uk/cell_lines/cbrowse/all and http://p53.free.fr/Database/Cancer_ cell_lines/Leukemia_cancer. html. WT: wild type. Mut: mutant. SM: single mutation. DM: double mutation. MM: multiple mutations. Fs: Frameshift mutation. Null: protein expression undetectable. […]
(§8) measured via alamarBlue assay. […]

MOLM14 cells [1] = assay: alamarBlue cytotoxicity assay, 48h; type: cell-based, human; details: MOLM14 (AML), 48h, RPMI + 10% FBS
Method: as §1, §2, §3, §4, §5, §6, §7, §8

MOLM14 cells [2] = assay: viable cell counts via Trypan Blue dye exclusion, 48h; type: cell-based, human; details: read-out: approximate 48h IC50
Method: A. Quantification of the percentage of early apoptotic cells (Annexin-V+/7-AAD-) from three independent experiments in which cells were stained for apoptosis with 7-AAD and Annexin-V then analyzed by flow cytometry. […] C. […] 16h after addition of drugs, cells were washed and analyzed by flow cytometry for CM-H2DCFDA fluorescence (indicating total ROS generation) in the FL1 channel. Mean Fluorescence Intensity (MFI) was normalized to that of vehicle control (0.5% DMSO) with no pretreatment. […] Viable cell counts, obtained via Trypan Blue dye exclusion, were normalized to vehicle (0.02% DMSO)-treated samples +/– pretreatment.
In most experiments, cytotoxicity was assessed using alamarBlue assays (Life Technologies, Grand Island, NY). In experiments using NAC and DFO, which can interfere with alamarBlue assay performance, Trypan Blue dye exclusion was used instead.

in vivo = details: male, NSG, mouse, plasma, po, 200 mg/kg
Method: (§9) Plasma samples were obtained from 3-6 male NSG mice per time point (15min-24h after drug administration). Symbols represent concentrations of compound by LC/MS-MS detection.
(§10) Blood samples were collected via retro-orbital bleeding into EDTA-coated tubes. PK samples were centrifuged to obtain plasma, which was stored frozen (−80°C) until liquid chromatography/triple quadrupole mass spectrometry (LC/MS-MS) analysis.
(§11) were separated using an Agilent Zorbax Eclipse C18 column (2.1 mm x 50 mm, 3.5 μm) using gradient mobile phase
(§12) (acetonitrile and 2 mM ammonium acetate both containing 0.1% formic acid) and a gradient flow rate (0.2 to 0.4 ml/
(§13) min). An AB Sciex 5500 triple quadrupole mass spectrometer was used for detection. The m/z transitions used were
(§14) The calibration range was 5–1,000 ng/mL for all analytes. Mean drug concentrations were calculated at each time point. PK parameters (plasma
(§15) half-life [T1/2]; time to reach Cmax [Tmax]; maximum plasma concentration [Cmax]; area under the plasma concentration-
(§16) time curve [AUC] from time zero to the last measurable concentration [AUClast]; AUC from time zero to infinity [i.e.,
(§17) the AUClast + the extrapolated AUC from AUClast to infinity; AUC0–∞]; apparent volume of distribution [Vz/F]; body
(§18) weight-adjusted apparent clearance [CL/F/kg]) were calculated from mean drug concentration-time data using non-
(§19) the r2 of the elimination rate constant (λ ) was < 0.9, the AUC , CL/F, and T were not reported (NR).

[3] = plasma pharmacokinetics after single oral dose; details: single oral dose AS 200 mg/kg, NSG mice
Method: as §9, §10, §11, §12, §13, §14, §15, §16, §17, §18, §19

[4] = Homo sapiens, KOPN-8, KOPN8 (B-ALL)

Nc1ccn([C@@H]2O[C@H](CO)[C@@H](O)[C@@H]2O)c(=O)n1 [ARA, cytosine arabinoside]
IC50 (KOPN8 cells; KOPN8 (B-ALL)): 73 nM | IC50 (MOLM14 cells [1]): 286 nM

CC(=O)N(O)CCCCCNC(=O)CCC(=O)N(O)CCCCCNC(=O)CCC(=O)N(O)CCCCCN [DFO, deferoxamine mesylate]
IC50 (MOLM14 cells [2]; Homo sapiens, MOLM-14, 48 h): ~11000 nM

C[C@H]1[C@@H](O)O[C@@H]2O[C@@]3(C)CC[C@H]4[C@H](C)CC[C@@H]1[C@@]24OO3 [DHA, dihydroartemisinin]
AUC(0-inf) (in vivo): 1300 ng·h/mL | AUC(0-t) (in vivo): 1290 ng·h/mL | CL/F (in vivo): 2050 mL/min/kg | Cmax (in vivo): 1630 ng/mL and 5.74 µM | Tmax (in vivo): 15 min | Vd/F (in vivo): 103 L/kg | half-life (in vivo): 34.8 min | IC50 (KOPN8 cells; [4]): 351 nM | IC50 (MOLM14 cells [1]; Homo sapiens, MOLM-14): 1020 nM | T1/2 ([3]; plasma): < 60 min | time by which plasma declined to undetectable levels [3]: ≤ 4 h

COc1cccc2c1C(=O)c1c(O)c3c(c(O)c1C2=O)C[C@@](O)(C(=O)CO)C[C@@H]3O[C@H]1C[C@H](N)[C@H](O)[C@H](C)O1 [DOX, doxorubicin]
IC50 (KOPN8 cells; [4]): 30 nM | IC50 (MOLM14 cells [1]; Homo sapiens, MOLM-14): 79 nM

COc1cc([C@@H]2c3cc4c(cc3[C@@H](O[C@@H]3O[C@@H]5CO[C@@H](C)O[C@H]5[C@H](O)[C@H]3O)[C@H]3COC(=O)[C@H]23)OCO4)cc(OC)c1O [ETO, etoposide]
IC50 (KOPN8 cells; [4]): 150 nM | IC50 (MOLM14 cells [1]; Homo sapiens, MOLM-14): 242 nM

C[C@]12O[C@H](C[C@]1(O)CO)n1c3ccccc3c3c4c(c5c6ccccc6n2c5c31)CNC4=O [LES, lestaurtinib]
IC50 (KOPN8 cells; [4]): 45 nM | IC50 (MOLM14 cells [1]; Homo sapiens, MOLM-14): 3 nM

CO[C@@H]1[C@H](N(C)C(=O)c2ccccc2)C[C@H]2O[C@]1(C)n1c3ccccc3c3c4c(c5c6ccccc6n2c5c31)C(=O)NC4 [MID, midostaurin]
IC50 (KOPN8 cells; [4]): 210 nM

CC(=O)N[C@@H](CS)C(=O)O [NAC, N-acetyl cysteine]
IC50 (MOLM14 cells [2]; MOLM14, preliminary experiments): ~25000 nM

CNC(=O)c1cc(Oc2ccc(NC(=O)Nc3ccc(Cl)c(C(F)(F)F)c3)cc2)ccn1 [SOR, sorafenib]
IC50 (KOPN8 cells; [4]): 4200 nM | IC50 (MOLM14 cells [1]; Homo sapiens, MOLM-14): 4 nM
